Measured values: article PMC10726920 (Cancer Medicine, 2023)

System: patients with acute lymphoblastic leukemia
Assay: Adverse events (CTCAE version 4.0), Phase II study NCI-9775 of sapanisertib monotherapy
Format: in vivo
Method: Responders could continue on the same dose or proceed to allogeneic hematopoietic cell transplant if available. Non‐responders (but tolerating drug) could increase their dose to 4 mg orally for 21 days every 28 days (dose level + 1) starting in Cycle 3 and 4 mg orally continuously (dose level + 2) starting in Cycle 5 (if they tolerated dose level + 1). Dose reduction was recommended for toxicity (dose level − 1: 2 mg daily for 21 days every 28 days; dose level − 2: 2 mg daily for 5 days/week for 3 weeks every 4 weeks). […] Intrathecal chemotherapy was allowed per institutional standard policies. In‐home blood glucose monitoring was performed daily to monitor blood sugar (a glucometer was given to every patient on the study). Discontinuation of therapy was recommended for disease progression, severe toxicity, lack of response, proceeding to hematopoietic cell transplant, or prolonged delay of the subsequent cycle (>1 month delay for therapy‐related toxicity or >2 months delay for unrelated toxicity).
The primary endpoint was the proportion of successes, which was estimated by the number of successes divided by the total number of evaluable patients. Secondary endpoints of duration of response (CR or CRi) and overall survival (OS) were evaluated using Kaplan–Meier techniques; the frequency of proceeding to allogeneic stem cell transplant after achieving response and adverse events (AEs), as evaluated using reported the NCI Common Terminology Criteria for Adverse Events (CTCAE) version 4.0, were presented using descriptive statistics.

[1] = Grade 3–4, at least possibly related
[2] = Grade >2 hematological, abstract
[3] = grade 3–4 non‐hematologic, abstract
[4] = possibly related, B-Cell, 10 evaluable
[5] = possibly related, T-Cell, 5 evaluable
[6] = treatment-related, 15 evaluable

CC(C)n1nc(-c2ccc3oc(N)nc3c2)c2c(N)ncnc21 [sapanisertib]
2 patients: Hyperglycemia G2 (discussion) | Hyperglycemia G3 (discussion) | hyperglycemia [3]
1 (7) N (%): Abdominal pain grade 3 [6] | Anal mucositis grade 2 [6] | Anorexia grade 2 [6] | Anorexia grade 3 [6] | Anxiety grade 1 [6] | Aspartate aminotransferase increased grade 1 [6]
3 (30%) N (%): Mucositis oral grade 3 [4]
1: leukocytosis, patients [1] | neutropenia, patients [1] | abdominal pain, patients (Grade 3–4 treatment‐related) | anorexia, patients (Grade 3–4 treatment‐related) | bilirubin increase, patients (Grade 3–4 treatment‐related) | confusion, patients (Grade 3–4 treatment‐related) | delirium, patients (Grade 3–4 treatment‐related) | febrile neutropenia, patients (Grade 3–4 treatment‐related) | fibrinogen decrease, patients (Grade 3–4 treatment‐related) | pneumonitis, patients (Grade 3–4 treatment‐related) | thoracic disease, patients (Grade 3–4 treatment‐related) | neutropenia, patients [2] | thrombocytopenia, patients [2]
0 (0) N (%): Abdominal pain grade 1 [6] | Abdominal pain grade 2 [6] | Abdominal pain grade 4 [6] | Abdominal pain grade 5 [6] | Anal mucositis grade 1 [6] | Anal mucositis grade 3 [6] | Anal mucositis grade 4 [6] | Anal mucositis grade 5 [6] | Anemia grade 1 [6] | Anemia grade 2 [6] | Anemia grade 4 [6] | Anemia grade 5 [6] | Anorexia grade 1 [6] | Anorexia grade 4 [6] | Anorexia grade 5 [6] | Anxiety grade 2 [6] | Anxiety grade 3 [6] | Anxiety grade 4 [6] | Anxiety grade 5 [6]
4: anemia, patients [1] | thrombocytopenia, patients [1] | hyperglycemia, patients (any grade, discussion)
1 patient: anorexia [3] | confusion [3] | hepatic failure [3] | pneumonitis [3] | seizures [3]
54.5%: patients with at least one grade ≥3 non‐hematologic AE (Six of 11 patients in clearance-toxicity analysis)
6 days: median time to hyperglycemia (discussion)
3 patients: mucositis (discussion) | mucositis [3]
0 (0%) N (%): Abdominal pain grade 3 [4] | Abdominal pain grade 4 [4] | Abdominal pain grade 5 [4] | Anemia grade 4 [4] | Anemia grade 5 [4] | Anorexia grade 4 [4] | Anorexia grade 5 [4] | Confusion grade 4 [4] | Confusion grade 5 [4] | Fatigue grade 4 [4] | Fatigue grade 5 [4] | Febrile neutropenia grade 4 [4] | Febrile neutropenia grade 5 [4] | Hyperglycemia grade 4 [4] | Hyperglycemia grade 5 [4] | Leukocytosis grade 3 [4] | Leukocytosis grade 4 [4] | Leukocytosis grade 5 [4] | Lymphocyte count decreased grade 4 [4] | Lymphocyte count decreased grade 5 [4] | Mucositis oral grade 4 [4] | Mucositis oral grade 5 [4] | Neoplasms benign, mal, uncpec - Oth spec grade 3 [4] | Neoplasms benign, mal, uncpec - Oth spec grade 4 [4] | Neoplasms benign, mal, uncpec - Oth spec grade 5 [4] | Neutrophil count decreased grade 3 [4] | Neutrophil count decreased grade 5 [4] | Platelet count decreased grade 3 [4] | Platelet count decreased grade 5 [4] | Pneumonitis grade 3 [4] | Pneumonitis grade 4 [4] | Pneumonitis grade 5 [4] | Resp, thoracic, mediastinal - Oth spec grade 3 [4] | Resp, thoracic, mediastinal - Oth spec grade 5 [4] | White blood cell decreased grade 3 [4] | White blood cell decreased grade 5 [4] | Abdominal pain grade 4 [5] | Abdominal pain grade 5 [5] | Anemia grade 3 [5] | Anemia grade 4 [5] | Anemia grade 5 [5] | Anorexia grade 3 [5] | Anorexia grade 4 [5] | Anorexia grade 5 [5] | Confusion grade 3 [5] | Confusion grade 4 [5] | Confusion grade 5 [5] | Fatigue grade 3 [5] | Fatigue grade 4 [5] | Fatigue grade 5 [5] | Febrile neutropenia grade 3 [5] | Febrile neutropenia grade 4 [5] | Febrile neutropenia grade 5 [5] | Hyperglycemia grade 3 [5] | Hyperglycemia grade 4 [5] | Hyperglycemia grade 5 [5] | Leukocytosis grade 4 [5] | Leukocytosis grade 5 [5] | Lymphocyte count decreased grade 3 [5] | Lymphocyte count decreased grade 4 [5] | Lymphocyte count decreased grade 5 [5] | Mucositis oral grade 3 [5] | Mucositis oral grade 4 [5] | Mucositis oral grade 5 [5] | Neoplasms benign, mal, uncpec - Oth spec grade 4 [5] | Neoplasms benign, mal, uncpec - Oth spec grade 5 [5] | Neutrophil count decreased grade 3 [5] | Neutrophil count decreased grade 4 [5] | Neutrophil count decreased grade 5 [5] | Platelet count decreased grade 5 [5] | Pneumonitis grade 4 [5] | Pneumonitis grade 5 [5] | Resp, thoracic, mediastinal - Oth spec grade 3 [5] | Resp, thoracic, mediastinal - Oth spec grade 4 [5] | Resp, thoracic, mediastinal - Oth spec grade 5 [5] | White blood cell decreased grade 3 [5] | White blood cell decreased grade 4 [5] | White blood cell decreased grade 5 [5]
2: leukopenia, patients [1] | lymphopenia, patients [1] | hyperglycemia, patients (Grade 3–4 treatment‐related) | lymphopenia, patients [2]
1 (20%) N (%): Abdominal pain grade 3 [5] | Leukocytosis grade 3 [5] | Neoplasms benign, mal, uncpec - Oth spec grade 3 [5] | Platelet count decreased grade 4 [5] | Pneumonitis grade 3 [5]
25%: Hyperglycemia, percent of patients (any grade, discussion)
2 (20%) N (%): Hyperglycemia grade 3 [4] | Lymphocyte count decreased grade 3 [4] | White blood cell decreased grade 4 [4]
2 (40%) N (%): Platelet count decreased grade 3 [5]
4 (27) N (%): Anemia grade 3 [6]
9 patients: patients with a grade 3 or higher AE related to the study drug (15 evaluated)
1 (10%) N (%): Anemia grade 3 [4] | Anorexia grade 3 [4] | Confusion grade 3 [4] | Fatigue grade 3 [4] | Febrile neutropenia grade 3 [4] | Neutrophil count decreased grade 4 [4] | Platelet count decreased grade 4 [4] | Resp, thoracic, mediastinal - Oth spec grade 4 [4]
3: mucositis, patients (Grade 3–4 treatment‐related) | leukopenia, patients [2]
15 patients: patients with at least 1 grade 3 AE (15 evaluated)
